The source of these data is article PMC7539012, “Hyperphosphorylated tau aggregation and cytotoxicity modulators screen identified prescription drugs linked to Alzheimer's disease and cognitive functions” (Scientific Reports, 2020).

The structures appear in SMILES notation. Counter-ions that a name gives are not always drawn.

For one series, the system named is HEK293T cells. Nature of the series: intracellular fibril buildup and cell death after p-tau, ThS/PI double staining. The class given is cell-based. The conditions noted are these: 15 µM compound added 24 h after p-tau. Here is the method: Cells were harvested for ThS/PI staining after additional 24 or 48 h. ThS staining helped visualize intracellular fibrils. In this experiment, we used HEK293T cells to avoid potential interference from the endogenous tau. […] To gain a quantitative assessment, the numbers of the four possible combinations of ThS/PI staining were tallied.
(a) Experimental design. […] These images were from T24hr time point in panel (a) with 0.5 µM p-tau treatment. (c) Quantification of ThS and PI stainability among cells. Cells were categorized based on one of the four ThS/PI double-staining patterns. The total number of cells captured microscopically under each treatment was used as the denominator for the calculation of the proportion of each staining pattern, and expressed in this stacked column chart.
(§1) Cell viability assays were tested according to reference[60] with modifications. PTAIs were typically added to cells along with (Fig. 4) or after p-tau was added to cells (Fig. 5). For PTAEs, 10 × concentration of p-tau and the test compounds were assembled for pre-aggregation (without heparin or ThS) for 48 h before adding 10 µl to 100 µl of cells in 96-well plates. Twenty-four or 48 h after the addition of protein/compound, cells were trypsinized and transferred to microcentrifuge tubes, and pelleted at 1000 × g for 5 min at room temperature for FDA, PI, annexin V, and ThS staining. For PI/ThS double staining, cell pellets were resuspended in 20 mM Tris, pH7.4 buffer and incubated with 100 µM ThS for 5 min at room temperature. 5-µg/ml propidium iodide was then added to cell suspension for observation under a microscope.

Another series addresses T1, p-tau (Homo sapiens, UniProt P10636).
T1 construct: made in house; host or cells: E. coli (PIMAX system)
Put plainly: p-tau aggregation assay, dose response (ThS fluorescence, inducer-free). The conditions noted are these: 6 µM p-tau, ThS fluorescence. The class given is biochemical. Here is the method:
Aggregation of 6-µM p-tau under the influence of 30 µM of each of the library compounds or a DMSO vehicle control was monitored in 384-well plates every 10 min for ThS fluorescence changes over 16 h. To assess the quality of the high-throughput p-tau aggregation reactions, we used the T0 and T16hr ThS fluorescence units of no-compound control reactions to calculate the Z′-factor and coefficient of variation (CV), two commonly used criteria for robustness of high-throughput screens (HTS)[62]. A Z′-factor greater than 0.5 and CV smaller than 10% indicate robustness. […] To identify compounds with significant p-tau aggregation modulation, the net change of ThS fluorescence was calculated from all reactions (see Supplemental Table 1 for complete listing).
Aggregation of 6 µM of p-tau was done in the presence of the indicated concentrations of either compound. […] P-tau aggregation reactions with the C291S C322S (C/S) mutant p-tau were done in the presence of the indicated amounts of either compound. Shown are net changes of ThS over 16 h.
Given the tremendous socioeconomical burdens of AD, measures that prevent or delay the onset of the devastating neurodegeneration of AD will be highly impactful. If hyperphosphorylated tau-inflicted neuronal damages are an underpinning for AD and other tauopathies, enhancers of p-tau aggregation (PTAEs) may be risk factors for neurodegeneration. […] Prednicarbate is a synthetic corticosteroid for dermatological use, and carmofur (1-hexylcarbamoyl-5-fluorouracil) is an anti-neoplastic pyrimidine analogue. […] BZDs are among the most widely prescribed medication, in particular to the elderly, for depression and insomnia[70],[71]. We hypothesized that certain BZDs acted as a PTAE to potentiate p-tau aggregation and cytotoxicity. […] We therefore randomly picked nine prescription BZDs for p-tau aggregation assessment (Fig. 6; see Supplemental Fig. 5 for chemical structures). To 6-µM p-tau aggregation reactions, increasing doses of each of these BZDs were added.
Prednicarbate, a synthetic steroid, served as a PTAE control (yellow bars).
The aggregation assays over the course of this project have been done with multi-plate readers from different sources.
A common mix of 6 µM p-tau, 20 mM Tris pH 7.4, 1 mM DTT, and 20 µM ThS was assembled and dispensed to 384-well low-volume plates (10 µl per well) using BioTek EL406 Washer, followed by the addition of 150 nl of the Prestwick Library compounds (final concentration of 30 µM per well) or DMSO in a Beckman Coulter Biomek FX^P workstation. Each plate was covered with an Optical Adhesive Film and incubated at 37 °C for about 10 min. ThS fluorescence was measured every 10 min at 440/490 nm for 16 h by Biotek Synergy Neo Plate Reader. […] The real-time kinetics of ThS signals were collected using Gen5 software.

The subject of the next series is SH-SY5Y cells. Nature of the series: cells. The conditions noted are these: Homo sapiens, SH-SY5Y, read-out: EC50, concentration of compound to reduce p-tau cytotoxicity by 50%, SH-SY5Y, 0.8 µM p-tau. Here is the method:
(see below). […] PI is excluded by living cells, but diffuses into dead cells where it binds nucleic acid and emits fluorescence. FDA/PI differential staining thus provides a quantitative assessment of cellular viability. The blue curves in Fig. 4a,b depict the cellular viability after treatment with 0–0.8 µM of p-tau.
P-tau (without pre-aggregation) and compounds were added together to cells. Cell viability was quantified by FDA and PI differential staining 24 h later. […] Cellular viability was characterized as above and plotted against the compound concentration. Trend lines in panels (a)–(c) were obtained with the dose response curve fitting function of the software Origin (Origin Pro 8, OriginLab Corporation, Northampton, MA, USA). (d) Representative images of apoptotic cells after treatment of p-tau. SH-SY5Y cells were treated with 0.6 µM of p-tau for 12 h before harvesting for annexin V and PI staining. […] The percentage of apoptotic SH-SY5Y cells was quantified by annexin V and PI double staining of cells receiving 12 h of the indicated treatment under each column in the graph. Error bars are standard deviations; n = 3.
SH-SY5Y cells were treated with 0–0.6 µM of p-tau in conjunction with varying doses of nitrazepam, prazepam or devazepide. […] The red dotted lines indicate 50% viability. Curve fitting was done with the dose–response fitting function of the software Origin (version 8, OriginLab Inc.). The number in parentheses represents the concentration (in µM) of the indicated compound.
as §1
Supplemental Figure 2. […] SH-SY5Y cells were treated with the indicated concentrations p-tau and compounds (in µM) for 20 hours before FDA/PI differential staining and microscopic quantification. […] 0.2 or 0.4 µM of p-tau and 30 µM of each compound were pre-incubated in aggregation reactions for 24 hours before the 20-hr cell treatment and cytotoxicity quantification. FDA and PI dual staining was performed to measure cellular viability. SH-SY5Y cells Compounds in panel (a) were added to cells along with p-tau without pre-incubation.

Series [1] relates to C291S C322S (C/S) and C291A C322A (C/A) mutant p-tau. Nature of the series: aggregation of C/S or C/A mutant p-tau (ThS net change). Type of series: biochemical. Conditions: increasing doses of compound. Here is the method: Figure 3 R-(−)-apomorphine and raloxifene are p-tau aggregation inhibitors (PTAIs) that act independently of the redox state of p-tau. (a) and (b) P-tau aggregation inhibition dose response curves of R-(−)-apomorphine and raloxifene. Aggregation of 6 µM of p-tau was done in the presence of the indicated concentrations of either compound. (c) Both R-(−)-apomorphine and raloxifene act independently of the two cysteine residues of p-tau. P-tau aggregation reactions with the C291S C322S (C/S) mutant p-tau were done in the presence of the indicated amounts of either compound. Shown are net changes of ThS over 16 h.
Many “hits” from prior tau-based HTS were non-selective redox modulators, due most likely to the susceptibility of unmodified tau fibrils to the oxidation of two cysteine residues of tau, C291 and C322. Because p-tau aggregation was not affected by changing the two cysteine residues to alanine or serine, we suspected that R-(−)-apomorphine and raloxifene would act independently of these two cysteine. […] By itself, the C/S p-tau gained 130 units of ThS fluorescence over the course of the aggregation reaction (blue column). With increasing doses of either compound, the net gain of ThS fluorescence decreased progressively. […]

On the set-up of series [2]: method as in PMID 21071476. The conditions noted are these: cited from earlier work.
The test system of the next series is 3xTg mice. Conditions: cited from earlier work.

T1 sequence (P10636 1-412 isoform P10636-7): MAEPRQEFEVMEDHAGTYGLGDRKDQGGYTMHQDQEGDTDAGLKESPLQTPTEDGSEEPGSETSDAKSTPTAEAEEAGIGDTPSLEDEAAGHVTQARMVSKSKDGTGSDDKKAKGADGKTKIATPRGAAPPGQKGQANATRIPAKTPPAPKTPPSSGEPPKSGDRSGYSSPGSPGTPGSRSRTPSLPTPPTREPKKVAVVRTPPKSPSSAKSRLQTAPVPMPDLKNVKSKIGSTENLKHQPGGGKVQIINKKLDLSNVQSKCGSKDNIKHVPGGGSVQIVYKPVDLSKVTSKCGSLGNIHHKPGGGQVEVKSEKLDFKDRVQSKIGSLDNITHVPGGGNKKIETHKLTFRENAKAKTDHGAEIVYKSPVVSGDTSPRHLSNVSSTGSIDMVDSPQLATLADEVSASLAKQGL

Turning to `CN1CCc2cccc3c2[C@H]1Cc1ccc(O)c(O)c1-3` [Apomorphine, R-(−)-apomorphine hydrochloride], in the series on HEK293T cells (48-h samples), the “live cells with cytoplasmic ThS fluorescence” value was found to be 26%. For the same compound, the “PI (+) ThS (+) cells” value with HEK293T cells (harvested after additional 24 h) came to 61%; with HEK293T cells (harvested after additional 48 h), 44%. Also, the EC50 at p-tau worked out at 18.1 µM; in the series with SH-SY5Y cells it was 2.9 µM. For the same compound, the “aggregation of C/A or C/S mutant p-tau” value in series [1] was “effectively inhibited”. Besides, the “blood brain barrier passage” value in series [2] is reported as “can pass the blood brain barrier”. Besides, in the series on 3xTg mice, the “memory in 3xTg mice” value is listed as “memory improvement”.
